# Patent US8592451B2, “Reversible nondepolarizing neuromuscular blockade agents and methods for their use” (Cornell University, priority 2009, dated 2013)
# “Also recorded” adds a separate entry of the source.
# Assays:
# [1] = L-cysteine adduction kinetics in vitro (HPLC); format: physicochemical; conditions: pH 7.4, 37° C.; for NMBA peak area / [NMBA] remaining / ln* = ln (([NMBA]t[L-cysteine]t=0)/([NMBA]t=0[L-cysteine]t)): CW 002 1000 μg/mL + 1.05 equiv. L-cysteine
# Protocol: In a second experiment, to evaluate degradation in the presence of L-cysteine, buffered solutions (pH 7.4) of gantacurium, CW 002 or CW 011 were freshly prepared at 37° C. to give experimental concentrations of 1000 μg/mL (CW 002 and CW 011) and 200 μg/mL (gantacurium), after addition to and mixing with a 5% Molar excess of L-cysteine at time=0.
# The concentration of neuromuscular blocking agent/parent compound remaining at specified time points after mixing was determined by high performance liquid chromatography. The concentration of blocking agent at each time point was determined from a separately prepared reaction mixture, due to the rapid rate of L-cysteine adduction. The reaction rate constant for the second order reaction of each neuromuscular blockade agent (NMBA) with L-cysteine was derived by plotting the natural log of ([NMBA]t[L-cysteine]t=0/[NMBA]t=0[L-cysteine]t) vs. time.
# Concentrations selected were 200, 100 and 50 μg/ml which are approximately proportional to the relative potencies (ED 95) of gantacurium, CW 002 and CW 011 respectively. A degradation (adduction) pathway in the presence of L-cysteine for each of the three compounds was proposed.
# The reaction of L-cysteine with CW 002, CW 011 or gantacurium is first order in the case of both the neuromuscular blockade agent (NMBA) and L-cysteine, represented by the rate equation (1). d[Adduct]/dt=−d[NMBA]/dt=ka[NMBA][L-cysteine] (1)
# Calculation of the L-cysteine adduction half time requires experimental derivation of the reaction rate constant, ka, for each compound. The initial concentrations of NMBA and L-cysteine are unequal in the experiments conducted for this study, thus integration of equation 1 gives equation 2, where [NMBA]0 is the NMBA concentration at time equals 0 and [NMBA]t is the NMBA concentration at a time point, t.
# [formula] A plot of the ln(([NMBA]t [L-cysteine]0)/([NMBA]0 [L-cysteine]t)) versus time (ln* vs. t) gives a line, with slope equal to ka([NMBA]0−[L-cysteine]0). An adduction reaction half time can be calculated by solving for ka to be used in equation 3.
# NMBA standard solutions were prepared by a method similar to that used to prepare hydrolysis standards. The standards were prepared at 1000 μg/mL for CW 002 and CW 011 and 200 μg/mL for gantacurium.
# Solutions used for determination of NMBA concentration at the reported times for CW 002 and CW 011 were prepared as follows: L-cysteine hydrochloride monohydrate was charged to a volumetric flask in de-ionized water. A 5 mL aliquot of the L-cysteine solution (1.05 equiv. L-cysteine with respect to NMBA) was transferred by volumetric pipette to a flask held at 37.0±0.3° C. CW 002 or CW 011 was then charged to a separate 25 mL volumetric flask and diluted to volume with pH 7.4 phosphate buffer at 37.0° C. The NMBA solution was then immediately transferred to the flask containing L-cysteine to give an initial NMBA concentration of 1000 μg/mL. Solutions used for determination of gantacurium concentration versus time were prepared in a similar manner to give an initial concentration of 200 μg/mL. T=0 was defined as the time of addition of NMBA solution to L-cysteine solution. The times listed in the results table show the point of HPLC sample injection following mixing of L-cysteine and NMBA at time=0 (Table 1, below).
# Rate constants were calculated using equation (3) and the slope of the trend line derived from each data set. The strong linear correlation of the data within each set supports the use of second order kinetics for analysis of the cysteine adduction reactions.
# Reaction half times were calculated using equation 4 and the experimentally determined rate constants. The initial NMBA concentrations were chosen to reflect the relative potency observed in vivo.
# [2] = tested on: twitch of the extensor digitorum; assay: Reversal of neuromuscular blockade by L-cysteine or neostigmine in anesthetized rhesus monkeys; format: in vivo, rhesus monkeys (Macaca mulatta)
# Protocol: A control dose of 0.15 mg/kg CW 002 was allowed to recover spontaneously to TOF 110-120%. A second dose was given 60 minutes later, followed one minute afterwards by either neostigmine (0.05 mg/kg+atropine 0.05 mg/kg) or L-cysteine (10, 20, 30 or 50 mg/kg). Total duration and 5-95% recovery intervals were compared during spontaneous recovery vs. antagonism by L-cysteine or reversal by neostigmine.
# This series of paired comparisons was designed to generate dose-response data comparing spontaneous recovery of high doses of CW 011 (from 4 to 64× ED95) versus immediate antagonism at +1 min by an optimal dose of L-cysteine (50 mg/kg), previously determined during studies of immediate antagonism of CW 002. This experiment was done to explore the limits of chemical antagonism by L-cysteine of these olefinic diester neuromuscular blocking drugs, using CW 011 as a typical example with an intermediate duration of action. Five groups of animals first received a control dose of CW 011 at 4, 8, 16, 32 or 64× ED 95 (0.1 to 1.6 mg/kg). Sixty minutes after spontaneous recovery of the control dose to TOF 110-120%, the same dose was repeated, followed 1 min later by L-cysteine (50 mg/kg). Total duration of action and 5-95% recovery interval were compared during spontaneous recovery and following antagonism by L-cysteine
# The reversal of neuromuscular blockade by cysteine (5-50 mg/kg i.v.) was studied. Reversal was tested as follows: full paralysis was induced by injection of a dose of approximately 2-6× ED 95 of the compound in question. After spontaneous recovery of this dose, a second identical dose was given 15-30 min later. Cysteine was then given at +1 min after injection of the neuromuscular blocking drug at a point where no twitch was apparent (“immediate reversal”) or at the beginning of recovery from neuromuscular blockade at two percent twitch height (“classical reversal”). Comparisons were made among compounds with respect to rapidity and ease of cysteine reversal, by comparing 5-95% recovery times, and total durations of action (injection to 95% twitch recovery). Spontaneous recovery was compared with cysteine-accelerated recovery. […]
# [3] = tested on: twitch contractions of the extensor digitorum muscle; assay: Rhesus monkey anesthesia bioassay for potency and duration (substituent and stereochemical comparison, preliminary studies); format: in vivo; conditions: rhesus monkeys; for Potency (ED95 mg/kg): intravenously; for Potency (ED95 mg/kg) / Duration at 4X ED95 / Duration (minutes), from injection to 95% twitch recovery: preliminary studies; for Duration at 4X ED95: head prints no unit (column beside it: minutes); for Duration (minutes), from injection to 95% twitch recovery: dose not printed (beside ED95 column)
# Protocol: Two stereoisomeric structures, CW 002 (R-trans, R-trans), and CW 003 (R-cis, R-cis) were tested in the rhesus monkey anesthesia bioassay for potency and duration. A third compound, CW 001 (R-trans, R-trans) bearing an additional methoxyl group on each of the two benzyl groups in the molecule, was also tested.
# Rhesus monkeys were anesthetized with ketamine (7.5 mg/Kg) given intramuscularly or intravenously. Anesthesia was maintained with a mixture of isoflurane (1.5%), nitrous oxide (60%) and oxygen (40%). The common peroneal nerve was stimulated supramaximally with square wave pulses of 0.2 m sec duration at a rate of 0.15 Hz. Twitch contractions were recorded via the tendon of the extensor digitorum muscle.
# In all animals, the trachea was intubated and ventilation was controlled at 12-15 ml/kg, 18-24 breaths per minute. A peripheral vein and artery were cannulated for drug administration and for recording of arterial pressure, respectively. In preliminary studies a neuromuscular blocking agent having one of the following structures was administered intravenously.
# [4] = tested on: twitch of the extensor digitorum; assay: Neuromuscular blocking potency and duration in anesthetized rhesus monkeys; format: in vivo, rhesus monkeys (Macaca mulatta); conditions: for Duration (± SD/SEM), from injection to recovery of twitch to 95% of baseline: spontaneous recovery
# Protocol: Experiments were approved by the Institutional Animal Care and Use Committee of Weill Medical College of Cornell University (New York, N.Y.) and of Albany Medical College (Albany, N.Y.), where the studies were conducted. A colony of 10 adult male monkeys (Macaca mulatta) weighing 8-18 kg was studied at ˜6 week intervals. Animals were housed and cared for in accordance with the Guide for Care and Use of Laboratory Animals (National Research Council, Washington, D.C.). They were fed a standard Old World monkey diet, enriched with fruits and vegetables, and other dietary novelties and were followed throughout the study to verify normal health by physical examination, body weight, and clinical laboratory studies (Complete Blood Count, Blood Urea Nitrogen and creatinine, and liver function tests).
# On the day of each study, monkeys received ketamine (7-10 mg/kg i.m.) followed by tracheal intubation under topical anesthesia with 4% lidocaine. Ventilation was controlled at 10 mL/kg and 20 breaths/min with isoflurane (1.0-2.0%) and N2O/O2 (2:1 mixture). Ringers lactate was administered at ˜10 ml kg^−1 h^−1. Arterial pressure was monitored from a femoral, superficial tibial, or radial (22 gauge) cannula. Heart rate was measured by tachograph from the arterial pulse wave. Core temperature was kept at 36.5-38.0° C. by warming blankets. Electrocardiogram and pulse oximetry were monitored continuously.
# Needle electrodes (25 gauge) transmitting square-wave pulses of 0.2 msec duration at supramaximal voltage which were generated by a Grass S-88 stimulator (Grass Instruments, Quincy, Mass.) were placed at the peroneal nerve at the knee to elicit twitch responses of the extensor digitorum of the foot at 0.15 Hz. A small slip (10-20%) of the tendon was dissected free under sterile technique and tied to a Grass FT 10 force transducer (Grass Instruments, Quincy, Mass.) at a baseline tension of 50 gm. Train-of four stimulation (TOF, 2 Hz for 2 sec) was interposed at appropriate points, especially 1-2 min prior to NMBA dosing and following recovery of twitch to 95% of baseline, where TOF was subsequently evaluated every 1-2 min.
# Recordings of circulatory and neuromuscular data were made on a Grass 7B polygraph (Grass Instruments). A baseline period of 15-20 min was allowed for stabilization of recordings prior to dosing.^2
# Dose-response curves for twitch blockade by gantacurium, CW 002, CW 011, cisatracurium, CW002-Cys, NB 938-69, NB 1064-81, NB 802-17 (CW 001), NB 832-65, and NB 1163-79, structures of which are all shown above, were generated as follows. […] Successive doses were separated by at least three estimated half lives beyond complete recovery of the previous dose to TOF of 110-120%, which is normal for these monkeys. Only the first one or two doses yielding 5 to 99% blockade were included from any single experiment for computation of dose-response data.
# Comparative studies of spontaneous recovery versus antagonism/reversal were done at least 3 estimated half-lives following dose-response studies.
# ED 50 and ED 95 were computed from the regression of log dose vs. the logit of percentage blockade of twitch.
# CW002-Cys, the L-cysteine adduct of CW 002, was available in limited quantity and was administered in cumulative fashion to three animals to compare approximate potency and duration of effect versus its parent compound CW 002.
compound,measurement,setting,value
COc1ccc(C[C@@H]2c3cc(OC)c(OC)cc3CC[N@@+]2(C)CCCOC(=O)/C=C/C(=O)OCCC[N@+]2(C)CCc3cc(OC)c(OC)cc3[C@H]2Cc2ccc(OC)c(OC)c2)cc1OC [CW 002],NMBA peak area,"[1]; Trial 1, 142 Sec",2746.0 mAU's
same,[NMBA] remaining,"[1]; Trial 1, 142 Sec",224 µM
same,ln* = ln (([NMBA]t[L-cysteine]t=0)/([NMBA]t=0[L-cysteine]t)),"[1]; Trial 1, 142 Sec",−0.240
same,NMBA peak area,"[1]; Trial 2, 170 Sec",2350.7 mAU's
same,[NMBA] remaining,"[1]; Trial 2, 170 Sec",192 µM
same,ln* = ln (([NMBA]t[L-cysteine]t=0)/([NMBA]t=0[L-cysteine]t)),"[1]; Trial 2, 170 Sec",−0.277
same,NMBA peak area,"[1]; Trial 3, 188 Sec",2237.9 mAU's
same,[NMBA] remaining,"[1]; Trial 3, 188 Sec",183 µM
same,ln* = ln (([NMBA]t[L-cysteine]t=0)/([NMBA]t=0[L-cysteine]t)),"[1]; Trial 3, 188 Sec",−0.297
same,Plot Slope (ln* vs. time),"[1]; L-cysteine adduction, data of Table 1",−0.0012
same,"ka, second order rate constant of L-cysteine adduction",[1],14.3 M⁻¹ s⁻¹
same,half-life at 100 μg/ml,"[1]; pH 7.4 phosphate buffer with L-cysteine, calculated at [NMBA]0 0.000102 M (100 μg/ml), read-out: L-cysteine adduction reaction half time t1/2",11.4 min
same,immediate antagonism of blockade by L-cysteine (FIG. 1B),"[2]; CW 002 0.15 mg/kg (~4× ED 95), L-cysteine 10, 20, 30 or 50 mg/kg at +1 min",dose-related acceleration of recovery
same,immediate antagonism of blockade by neostigmine (FIG. 1A),"[2]; CW 002 0.15 mg/kg (~4× ED 95), neostigmine 0.05 mg/kg + atropine 0.05 mg/kg at +1 min",not achieved significantly faster than the spontaneous reversal; also recorded: did not shorten recovery
same,time to reversal of blockade with cysteine (FIG. 1B),"[2]; CW 002 0.15 mg/kg, all cysteine concentrations tested (10 to 50 mg/kg)",less than 6 minutes
same,time from cysteine administration to beginning of reversal (FIG. 1B),"[2]; CW 002 0.15 mg/kg, higher cysteine doses",2 to 3 min
same,time to spontaneous reversal of blockade (FIG. 1),"[2]; CW 002 0.15 mg/kg, no reversal agent",more than 12 minutes
same,reversibility of neuromuscular blockade by thiol compounds,[2]; cysteine (L or D) or glutathione,reversible
same,effect of neostigmine given immediately after the blocking drug,[2]; immediate reversal,ineffective
same,classical antagonism of neuromuscular blockade by neostigmine,"[2]; neostigmine given at beginning of spontaneous recovery, e.g. at 2% twitch height",showed antagonism
same,reversibility of effect by cysteine or glutathione,[3],reversible
same,Potency (ED95 mg/kg),[3],0.04 mg/kg
same,Duration at 4X ED95,[3],30-35
same,"Duration (minutes), from injection to 95% twitch recovery",[3],20 to 25 min
COc1cc2c(cc1OC)[C@@H](Cc1cc(OC)c(OC)c(OC)c1)[N@+](C)(CCCOC(=O)/C=C/C(=O)OCCC[N@+]1(C)CCc3cc(OC)c(OC)cc3[C@H]1Cc1cc(OC)c(OC)c(OC)c1)CC2 [NB 802-17],"Duration (± SD/SEM), from injection to recovery of twitch to 95% of baseline",[4]; administered dose 0.03 mg/kg,35.0 ± 15.0 min
same,"Duration (± SD/SEM), from injection to recovery of twitch to 95% of baseline",[4]; administered dose 0.10 mg/kg,49.4 ± 5.8 min
same,ED 95 (± SD/SEM),"[4]; twitch blockade, monkeys under isoflurane, twitch at 0.15 Hz, calculated from dose-response curve",0.033 ± 0.005 mg/kg
same,reversibility of effect by cysteine or glutathione,[3],reversible
same,Potency (ED95 mg/kg),[3],0.04 mg/kg
same,Duration at 4X ED95,[3],50-60
same,"Duration (minutes), from injection to 95% twitch recovery",[3],30 to 40 min
